Series [1] relates to LoVo (human colon cancer) cells. Description: Tumor-growth inhibition in vivo, LoVo xenograft in BALB/c nu/nu mice. The note with it: for tumor-growth inhibition: LoVo; for tumor inhibition rate: day 15, after 14 days' treatment.
Description: (§1) Suspensions of LoVo (5×10^6 cells/mouse), HT-29 (5 x 10^6 cells/mouse) and A431 (8×10^6 cells/mouse) cells were inoculated s.c. into the right flank of the mice. A piece of MAXF401 was transplanted s.c. into the right flank of female mice. A suspension of KPL-4 cells (1×10^7 cells/mouse) was orthotopically transplanted into the second mammary fat pad of female mice. Several weeks after tumor inoculation, mice were selected and randomized into control and treatment groups. Experiments were started when tumor volumes reached approximately 0.1-0.3 cm^3. […] The tumor volumes were estimated using the equation V=ab^2/2, where a and b are tumor length and width, respectively. Gastrointestinal (GI) toxicity was estimated by observing the feces and by detecting fecal occult blood using a test kit (Shionogi Pharma Co., Osaka, Japan). Peripheral blood leukocyte counts were performed to evaluate bone marrow toxicity.
The subject of series [2] is KPL-4 (human inflammatory breast cancer) cells. Description: Tumor-growth inhibition in vivo, KPL-4 orthotopic xenograft in BALB/c nu/nu mice.
Description: as §1
The nature of series [3]: Tolerability (body weight, deaths, MTD) in tumor-bearing mice. Format: in vivo, BALB/c nu/nu mice. Conditions: for lethality: erlotinib 250 mg/kg/day; for toxic deaths: erlotinib 50-125 mg/kg/day for 2 weeks. From the text: Male and female, 4-6-weeks old BALB/c nu/nu mice were obtained from Nippon Clea (Tokyo, Japan). All animals were allowed to acclimatize and recover from shipping-related stress for 1 week prior to the study. The health of the mice was monitored daily by observation.

Series [4] relates to MAXF401 (human breast cancer) cells. The experiment in a line: Tumor-growth inhibition in vivo, MAXF401 xenograft in BALB/c nu/nu mice. The note with it: erlotinib 100 mg/kg/day orally once daily for two weeks, day 15.
Description: as §1
For series [5], the system named is A-431 (human vulval epidermal cancer) cells. The experiment in a line: Tumor-growth inhibition in vivo, A-431 xenograft in BALB/c nu/nu mice. Conditions: erlotinib 100 mg/kg/day (80% of MTD) orally once daily for 14 days.
Description: as §1
Series [6] concerns HT-29 (human colon cancer) cells. The experiment in a line: Tumor-growth inhibition in vivo, HT-29 xenograft in BALB/c nu/nu mice. Conditions: erlotinib 100 mg/kg/day orally once daily for two weeks, day 15.
Description: as §1
[7] abbreviates: erlotinib 100 mg/kg/day (80% of MTD) orally once daily for 14 days, day 15.
Setting [8] is: erlotinib 100 mg/kg/day (80% of MTD) orally once daily for 14 days, day 15, listed as erlotinib.

Regarding `CCCCCOC(=O)Nc1nc(=O)n([C@@H]2O[C@H](C)[C@@H](O)[C@H]2O)cc1F` [Capecitabine, capecitabine], the tumor-growth inhibition is reported as 56% in series [1] (capecitabine at the MTD, 539 mg/kg) and 36% in series [2] (capecitabine 90 mg/kg (67% of MTD for this model) orally once daily for 14 days, day 15).
With `C#Cc1cccc(Nc2ncnc3cc(OCCOC)c(OCCOC)cc23)c1` [Erlotinib, [6,7-bis(2-methoxyethoxy)-4-quinazolin-4-yl]-(3-ethynylphenyl)amine], the antitumor activity result in series [1] (LoVo dose-response study, erlotinib 50 mg/kg orally once daily for 2 weeks) is recorded as “did not show significant antitumor activity”. The tumor inhibition rate is listed as 62% in series [1] (LoVo dose-response study, erlotinib 100 mg/kg orally once daily) and 85% in series [1] (LoVo dose-response study, erlotinib 125 mg/kg orally once daily). Besides, the tumor-growth inhibition in series [1] (setting [7]) is 74%; in series [1] (setting [8]), 74%; in series [4] it was 20%; in series [2] (setting [7]) it was 71%; in series [2] (setting [8]) it was 71%; in series [5] (day 15) it was 85%. For the same compound, the tumor-growth inhibition in series [5] (day 15, listed as erlotinib) worked out at 85%; in series [6], 46%. Moreover, the MTD at 2 weeks in series [3] (BALB/c nu/nu, mouse, in vivo, oral, read-out: maximum tolerated dose (MTD)) stood at 125 mg/kg/day. Moreover, the lethality entry in series [3] (mice bearing A431 tumors (data not shown)) and in series [3] (mice bearing LoVo tumors (data not shown)) was “lethal” each time. The toxic deaths entry in series [3] (mice bearing LoVo tumors) was “no deaths recorded”; in series [3] (mice bearing LoVo tumors, listed as erlotinib), “No toxic deaths were observed”. For the same compound, the “mean body weight maintained” value in series [3] (mice bearing LoVo tumors, erlotinib 50-125 mg/kg/day, all groups) was at least 80%. For the same compound, the “inhibition of tumor growth” value in series [2] (single-agent erlotinib 75 mg/kg (data not shown)) is 45%.

By MTD is commonly meant the highest dose tested that stayed within the study's limit of toxicity.

The record behind these values is patent publication US20060178387A1, “Combined treatment with capecitabine and an epidermal growth factor receptor kinase inhibitor” (priority 2005, published 2006).
